Where two headings read alike, the source gives them in different places. Peptide text beside a SMILES is read from it. * marks the point of attachment. βNA = c1ccc2cc(N*)ccc2c1
Assays:
Type in all cases: biochemical
B. asaccharolyticus = conditions: β-naphthylamine liberated after 60 minutes, 37° C.
Description: (§1) The enzyme activity was measured by the chromogenic properties of N-CBz-glycyl-glycyl-L-arginine-β-naphthylamide which upon hydrolysis gives a visible color. The aminopeptidase activities listed in the table reflect the nanomoles of β-naphthylamine liberated after 60 minutes under the conditions described below.
(§2) After mixing, the solution is incubated for 1 hour at 37° C. and then 0.4 ml of a solution of stabilized diazonium salt, Fast Garnet GBC (0.5 mg/ml) in a 1M acetic acid buffer (pH 4.2), containing 10% Tween 20 was added to the mixture. After standing for 15 minutes at room temperature, the color reaction can be read manually by comparison with standard solutions or the absorbancy can be determined using a spectrophotometer at 525 nm. The reaction mixture without enzyme solution is used as a control.

B. levii = conditions: β-naphthylamine liberated after 60 minutes, 37° C.
Description: as §1, §2

B. loescheii = conditions: β-naphthylamine liberated after 60 minutes, 37° C.
Description: as §1, §2

B. mel. ss. intermedius = conditions: β-naphthylamine liberated after 60 minutes, 37° C.
Description: as §1, §2

Bacteroides gingivalis = conditions: β-naphthylamine liberated after 60 minutes, 37° C.
Description: as §1, §2

C. ochracea = conditions: strain ATCC 27872; β-naphthylamine liberated after 60 minutes, 37° C.
Description: as §1, §2

[1] = test system: Capnocytophaga gingivalis; conditions: strain ATCC 33624; β-naphthylamine liberated after 60 minutes, 37° C.
Description: as §1, §2

Capnocytophaga sp. = conditions: strain JD3-5; β-naphthylamine liberated after 60 minutes, 37° C.
Description: as §1, §2

B. corporis = assay: Aminopeptidase activity on β-naphthylamide substrates; conditions: strain ATCC 33547; β-naphthylamine liberated after 60 minutes, 37° C.
Description: as §1, §2

B. denticola = assay: as above; conditions: strain ATCC 33185; β-naphthylamine liberated after 60 minutes, 37° C.
Description: as §1, §2

B. intermedius = assay: as above; conditions: strain ATCC 25611; β-naphthylamine liberated after 60 minutes, 37° C.
Description: as §1, §2

B. melaninogenicus = assay: as above; conditions: strain ATCC 25845; β-naphthylamine liberated after 60 minutes, 37° C.
Description: as §1, §2

C. sputigena = assay: as above; conditions: strain ATCC 33123; β-naphthylamine liberated after 60 minutes, 37° C.
Description: as §1, §2

"Anaerobic vibrio" = conditions: strain SN2T2; β-naphthylamine liberated after 60 minutes, 37° C.
Description: as §1, §2
(§3) The enzyme activity and the aminopeptidase activities were determined in the manner described above in regard to Table I.

A. viscosus = conditions: β-naphthylamine liberated after 60 minutes, 37° C.
Description: as §1, §2, §3

[2] = test system: Actinobacillus actinomycetemcomitans; conditions: β-naphthylamine liberated after 60 minutes, 37° C.
Description: as §1, §2, §3

Fusobacterium nucleatum = conditions: β-naphthylamine liberated after 60 minutes, 37° C.
Description: as §1, §2, §3

S. mutans = conditions: strain ATCC 25175; β-naphthylamine liberated after 60 minutes, 37° C.
Description: as §1, §2, §3

S. sanguis = conditions: β-naphthylamine liberated after 60 minutes, 37° C.
Description: as §1, §2, §3

Streptococcus mitis = conditions: β-naphthylamine liberated after 60 minutes, 37° C.
Description: as §1, §2, §3

Veillonella sp. = conditions: strain SE1M2; β-naphthylamine liberated after 60 minutes, 37° C.
Description: as §1, §2, §3

A. equuli = assay: Aminopeptidase activity on β-naphthylamide substrates; conditions: strain ATCC 19392; β-naphthylamine liberated after 60 minutes, 37° C.
Description: as §1, §2, §3

A. suis = assay: as above; conditions: strain ATCC 15557; β-naphthylamine liberated after 60 minutes, 37° C.
Description: as §1, §2, §3

F. periodonticum = assay: as above; conditions: strain EK1-15; β-naphthylamine liberated after 60 minutes, 37° C.
Description: as §1, §2, §3

Haemophilus aphrophilus = assay: as above; conditions: β-naphthylamine liberated after 60 minutes, 37° C.
Description: as §1, §2, §3

L. fermentum = assay: as above; conditions: strain ATCC 11581; β-naphthylamine liberated after 60 minutes, 37° C.
Description: as §1, §2, §3

Lactobacillus casei = assay: as above; conditions: β-naphthylamine liberated after 60 minutes, 37° C.
Description: as §1, §2, §3

S. salivarius = assay: as above; conditions: β-naphthylamine liberated after 60 minutes, 37° C.
Description: as §1, §2, §3

CSCCC(N)C(=O)Nc1ccc2ccccc2c1 (racemic)
Aminopeptidase activity (B. asaccharolyticus; strain 536B): 0 nmol | Aminopeptidase activity (B. asaccharolyticus; strain ATCC 18569): 0 nmol | Aminopeptidase activity (B. asaccharolyticus; strain ATCC 25260): 1 nmol | Aminopeptidase activity (B. asaccharolyticus; strain ATCC 27067): 2 nmol | Aminopeptidase activity (B. asaccharolyticus; strain NY446): 0 nmol | Aminopeptidase activity (B. levii; strain 18-1-5): 0 nmol | Aminopeptidase activity (B. levii; strain 18-1-8): 1 nmol | Aminopeptidase activity (B. loescheii; strain ATCC 15930): 0 nmol | Aminopeptidase activity (B. loescheii; strain VPI4196): 0 nmol | Aminopeptidase activity (B. mel. ss. intermedius; strain ATCC 25261): 0 nmol | Aminopeptidase activity (B. mel. ss. intermedius; strain ATCC 33563): 0 nmol | Aminopeptidase activity (B. mel. ss. intermedius; strain NCTC 9336): 0 nmol | Aminopeptidase activity (Bacteroides gingivalis; strain 9-14K-1): 0 nmol | Aminopeptidase activity (Bacteroides gingivalis; strain 11-1-2): 0 nmol | Aminopeptidase activity (Bacteroides gingivalis; strain 381): 0 nmol | Aminopeptidase activity (Bacteroides gingivalis; strain 1021): 0 nmol | Aminopeptidase activity (Bacteroides gingivalis; strain ATCC 33277): 0 nmol | Aminopeptidase activity (Bacteroides gingivalis; strain FAYE 19m-1): 0 nmol | Aminopeptidase activity (C. ochracea): 118 nmol | Aminopeptidase activity [1]: 122 nmol | Aminopeptidase activity (Capnocytophaga sp.): 28 nmol | Aminopeptidase activity (B. corporis): 0 nmol | Aminopeptidase activity (B. denticola): 0 nmol | Aminopeptidase activity (B. intermedius): 0 nmol | Aminopeptidase activity (B. melaninogenicus): 1 nmol | Aminopeptidase activity (C. sputigena): 117 nmol | Aminopeptidase activity ("Anaerobic vibrio"): 0 nmol | Aminopeptidase activity (A. viscosus; strain ATCC 19246): 9 nmol | Aminopeptidase activity (A. viscosus; strain T14V): 7 nmol | Aminopeptidase activity ([2]; strain 67): 0 nmol | Aminopeptidase activity ([2]; strain 75): 0 nmol | Aminopeptidase activity ([2]; strain ATCC 29523): 1 nmol | Aminopeptidase activity ([2]; strain NCTC 9709): 0 nmol | Aminopeptidase activity ([2]; strain Y4): 0 nmol | Aminopeptidase activity (Fusobacterium nucleatum; strain 2): 1 nmol | Aminopeptidase activity (Fusobacterium nucleatum; strain ATCC 25586): 0 nmol | Aminopeptidase activity (Fusobacterium nucleatum; strain D31A-24): 0 nmol | Aminopeptidase activity (S. mutans): 5 nmol | Aminopeptidase activity (S. sanguis; strain ATCC 10556): 23 nmol | Aminopeptidase activity (S. sanguis; strain ATCC 10557): 18 nmol | Aminopeptidase activity (Streptococcus mitis; strain ATCC 9815): 52 nmol | Aminopeptidase activity (Streptococcus mitis; strain ATCC 15909): 12 nmol | Aminopeptidase activity (Streptococcus mitis; strain ATCC 15911): 13 nmol | Aminopeptidase activity (Streptococcus mitis; strain ATCC 15912): 17 nmol | Aminopeptidase activity (Veillonella sp.): 0 nmol | Aminopeptidase activity (A. equuli): 0 nmol | Aminopeptidase activity (A. suis): 0 nmol | Aminopeptidase activity (F. periodonticum): 0 nmol | Aminopeptidase activity (Haemophilus aphrophilus; strain ATCC 13252): 0 nmol | Aminopeptidase activity (Haemophilus aphrophilus; strain ATCC 19415): 0 nmol | Aminopeptidase activity (Haemophilus aphrophilus; strain NCTC 5908): 0 nmol | Aminopeptidase activity (L. fermentum): 6 nmol | Aminopeptidase activity (Lactobacillus casei; strain ATCC 7469): 1 nmol | Aminopeptidase activity (Lactobacillus casei; strain ATCC 11578): 9 nmol | Aminopeptidase activity (Lactobacillus casei; strain ATCC 11582): 9 nmol | Aminopeptidase activity (S. salivarius; strain ATCC 9759): 5 nmol | Aminopeptidase activity (S. salivarius; strain ATCC 25975): 1 nmol

C[C@H](N)C(=O)N[C@@H](C)C(=O)N[C@@H](Cc1ccccc1)C(=O)Nc1ccc2ccccc2c1 [Ala-Ala-Phe] (H-Ala-Ala-Phe-βNA)
Aminopeptidase activity (B. asaccharolyticus; strain 536B): 0 nmol | Aminopeptidase activity (B. asaccharolyticus; strain ATCC 18569): 0 nmol | Aminopeptidase activity (B. asaccharolyticus; strain ATCC 25260): 0 nmol | Aminopeptidase activity (B. asaccharolyticus; strain ATCC 27067): 0 nmol | Aminopeptidase activity (B. asaccharolyticus; strain NY446): 0 nmol | Aminopeptidase activity (B. levii; strain 18-1-5): 0 nmol | Aminopeptidase activity (B. levii; strain 18-1-8): 0 nmol | Aminopeptidase activity (B. loescheii; strain ATCC 15930): 1 nmol | Aminopeptidase activity (B. loescheii; strain VPI4196): 0 nmol | Aminopeptidase activity (B. mel. ss. intermedius; strain ATCC 25261): 0 nmol | Aminopeptidase activity (B. mel. ss. intermedius; strain ATCC 33563): 0 nmol | Aminopeptidase activity (B. mel. ss. intermedius; strain NCTC 9336): 0 nmol | Aminopeptidase activity (Bacteroides gingivalis; strain 9-14K-1): 0 nmol | Aminopeptidase activity (Bacteroides gingivalis; strain 11-1-2): 0 nmol | Aminopeptidase activity (Bacteroides gingivalis; strain 381): 0 nmol | Aminopeptidase activity (Bacteroides gingivalis; strain 1021): 0 nmol | Aminopeptidase activity (Bacteroides gingivalis; strain ATCC 33277): 1 nmol | Aminopeptidase activity (Bacteroides gingivalis; strain FAYE 19m-1): 3 nmol | Aminopeptidase activity (C. ochracea): 82 nmol | Aminopeptidase activity [1]: 72 nmol | Aminopeptidase activity (Capnocytophaga sp.): 0 nmol | Aminopeptidase activity (B. corporis): 0 nmol | Aminopeptidase activity (B. denticola): 2 nmol | Aminopeptidase activity (B. intermedius): 0 nmol | Aminopeptidase activity (B. melaninogenicus): 1 nmol | Aminopeptidase activity (C. sputigena): 44 nmol | Aminopeptidase activity ("Anaerobic vibrio"): 0 nmol | Aminopeptidase activity (A. viscosus; strain ATCC 19246): 2 nmol | Aminopeptidase activity (A. viscosus; strain T14V): 4 nmol | Aminopeptidase activity ([2]; strain 67): 3 nmol | Aminopeptidase activity ([2]; strain 75): 1 nmol | Aminopeptidase activity ([2]; strain ATCC 29523): 0 nmol | Aminopeptidase activity ([2]; strain NCTC 9709): 1 nmol | Aminopeptidase activity ([2]; strain Y4): 0 nmol | Aminopeptidase activity (Fusobacterium nucleatum; strain 2): 2 nmol | Aminopeptidase activity (Fusobacterium nucleatum; strain ATCC 25586): 3 nmol | Aminopeptidase activity (Fusobacterium nucleatum; strain D31A-24): 0 nmol | Aminopeptidase activity (S. mutans): 0 nmol | Aminopeptidase activity (S. sanguis; strain ATCC 10556): 2 nmol | Aminopeptidase activity (S. sanguis; strain ATCC 10557): 1 nmol | Aminopeptidase activity (Streptococcus mitis; strain ATCC 9815): 3 nmol | Aminopeptidase activity (Streptococcus mitis; strain ATCC 15909): 1 nmol | Aminopeptidase activity (Streptococcus mitis; strain ATCC 15911): 0 nmol | Aminopeptidase activity (Streptococcus mitis; strain ATCC 15912): 0 nmol | Aminopeptidase activity (Veillonella sp.): 0 nmol | Aminopeptidase activity (A. equuli): 0 nmol | Aminopeptidase activity (A. suis): 0 nmol | Aminopeptidase activity (F. periodonticum): 1 nmol | Aminopeptidase activity (Haemophilus aphrophilus; strain ATCC 13252): 0 nmol | Aminopeptidase activity (Haemophilus aphrophilus; strain ATCC 19415): 0 nmol | Aminopeptidase activity (Haemophilus aphrophilus; strain NCTC 5908): 0 nmol | Aminopeptidase activity (L. fermentum): 5 nmol | Aminopeptidase activity (Lactobacillus casei; strain ATCC 7469): 0 nmol | Aminopeptidase activity (Lactobacillus casei; strain ATCC 11578): 3 nmol | Aminopeptidase activity (Lactobacillus casei; strain ATCC 11582): 3 nmol | Aminopeptidase activity (S. salivarius; strain ATCC 9759): 0 nmol | Aminopeptidase activity (S. salivarius; strain ATCC 25975): 0 nmol

Source: patent US4994376A, “Detection of bacteroides gingivalis” (priority 1987, dated 1991)
